Data taken from patent publication US6150359A, “Naphthyridinones for inhibiting protein tyrosine kinase and cell cycle kinase mediated cellular proliferation” (Warner-Lambert Company, priority 2000, dated 2000).
pIC50: −log10 of the molar value.

Legend:
[1] = molecular target: T1, PDGFr (mouse PDGF-β receptor tyrosine kinase) (Mus musculus, UniProt P05622); assay: PDGFr tyrosine kinase assay, 32P incorporation into glutamate-tyrosine copolymer; assay type: biochemical; details: 50 μM ATP
T1 construct: PCR primers are designed to amplify a fragment of DNA that codes for the intracellular tyrosine kinase domain; made in house; host or cells: Sf9 insect cells (baculovirus), cell lysate
Procedure: (§1) Platelet Derived Growth Factor Receptor (PDGFr) and Fibroblast Growth Factor Receptor (FGFr). Full length cDNAs for the mouse PDGF-β and human FGF-1 (flg) receptor tyrosine kinases were obtained from J. Escobedo and are prepared as described in J. Biol. Chem., 1991;262:1482-1487. PCR primers are designed to amplify a fragment of DNA that codes for the intracellular tyrosine kinase domain. The fragment is melded into a baculovirus vector, cotransfected with AcMNPV DNA, and the recombinant virus isolated. SF9 insect cells are infected with the virus to overexpress the protein, and the cell lysate is used for the assay.
(§2) PDGFr and FGFr. […] Briefly, to each well is added 82.5 μL of incubation buffer containing 25 mM Hepes (pH 7.0), 150 mM NaCl, 0.1% Triton X-100, 0.2 mM PMSF, 0.2 mM sodium vanadate, 10 mM manganese chloride, and 750 μg/mL of poly (4:1) glutamate-tyrosine followed by 2.5 μL of inhibitor and 5 μL of enzyme lysate (7.5 μg/μL FGFR-TK or 6.0 μg/μL PDGFR-TK) to initiate the reaction. Following a 10 minute incubation at 25° C., 10 μL of [γ^32 P]ATP (0.4 μCi plus 50 μM ATP) is added to each well, and samples are incubated for an additional 10 minutes at 25° C. The reaction is terminated by the addition of 100 μL of 30% trichloroacetic acid (TCA) containing 20 mM sodium pyrophosphate and precipitation of material onto glass fiber filter mats (Wallac). […] Nonspecific activity is defined as radioactivity retained on the filters following incubation of samples with buffer alone; (no enzyme). Specific enzymatic activity is defined as total activity (enzyme plus buffer) minus nonspecific activity.

[2] = molecular target: T2, FGFr (human FGF-1 (flg) receptor tyrosine kinase) (Homo sapiens, UniProt P11362); assay: FGFr tyrosine kinase assay, 32P incorporation into glutamate-tyrosine copolymer; assay type: biochemical; details: 50 μM ATP; read-out: FGFr IC50
T2 construct: PCR primers are designed to amplify a fragment of DNA that codes for the intracellular tyrosine kinase domain; made in house; host or cells: Sf9 insect cells (baculovirus), cell lysate
Procedure: as §1, §2

[3] = molecular target: cdk4/cyclinD (Homo sapiens, UniProt P11802); assay: Cyclin-Dependent Kinase 4 (cdk4/cyclinD) Assay; assay type: biochemical; details: 25 μM ATP, retinoblastoma substrate
Procedure: Cyclin-Dependent Kinase 4 (cdk4/cyclinD) Assay
Enzyme assays for IC50 determinations and kinetic evaluation were performed in 96-well filter plates (Millipore MADVN6550). The total volume was 0.1 mL containing a final concentration of 20 mM TRIS (tris[hydroxymethyl]aminomethane), at pH 7.4, 50 mM NaCl, 1 mM dithiothreitol, 10 mM MgCl2, 25 μM ATP containing 0.25 μCi of [^32 P]ATP, 20 ng of cdk4/cyclinD, 1 μg of retinoblastoma, and appropriate dilutions of a compound of the present invention. All components except the ATP were added to the wells, and the plate was placed on a plate mixer for 2 minutes. The reaction was started by adding [^32 P]ATP and the plate was incubated at 25° C. for 15 minutes. The reaction was terminated by addition of 0.1 mL of 20% trichloroacetic acid (TCA). The plate was kept at 4° C. for at least 1 hour to allow the substrate to precipitate. The wells were then washed 5 times with 0.2 mL of 10% TCA and ^32 P incorporation was determined with a beta plate counter (Wallace Inc., Gaithersburg, Md.).

[4] = molecular target: cdk2/cyclinE (Homo sapiens, UniProt P24941); assay: Cyclin-Dependent Kinase Assay, cdk2/cyclinE; assay type: biochemical; details: retinoblastoma substrate
Procedure: (§3) Cyclin-Dependent Kinase Assays (cdk2/cyclinE, cdk2/cyclinA, cdkl/cyclinB)
(§4) All components except the ATP were added to the wells, and the plate was placed on a plate mixer for 2 minutes. The reaction was begun by addition of [^32 P]ATP, and the plate was incubated at 25° C. for 15 minutes. The reaction was terminated by addition of 0.1 mL of 20% TCA. The plate was kept at 4° C. for least 1 hour to allow the substrate to precipitate. The wells were then washed 5 times with 0.2 mL of 10% TCA and ^32 P incorporation determined with a beta plate counter (Wallace Inc., Gaithersburg, Md.).

[5] = molecular target: T3, c-Src (Homo sapiens, UniProt P12931); assay: c-Src kinase assay, 32P incorporation into polyglutamate-tyrosine; assay type: biochemical; details: 5 μM ATP
T3 construct: made in house; host or cells: baculovirus infected insect cells
Procedure: Other Kinases. c-Src kinase is purified from baculovirus infected insect cell lysates using an antipeptide monoclonal antibody directed against the N-terminal 2-17 amino acids as described previously by Fry, et al., Anticancer Drug Design, 1994;9:331-351. Protein kinase C (PKC.) is obtained as a rat brain preparation from Promega.
c-Src. The antibody, covalently linked to 0.65-μm latex beads, is added to a suspension of insect cell lysis buffer comprised of 150 mM NaCl, 50 mM Tris pH 7.5, 1 mM DTT, 1% NP-40, 2 mM EGTA, 1 mM sodium vanadate, 1 mM PMSF, 1 μg/mL each of leupeptin, pepstatin, and aprotinin. Insect cell lysate containing the c-Src protein is incubated with these beads for 3 to 4 hours at 4° C. with rotation. At the end of the lysate incubation, the beads are rinsed three times in lysis buffer, resuspended in lysis buffer containing 10% glycerol, and frozen. These latex beads are thawed, rinsed three times in assay buffer which is comprised of 40 mM tris pH 7.5, 5 mM magnesium chloride, and suspended in the same buffer. In a Millipore 96-well plate with a 0.65 μm polyvinylidine membrane bottom are added the reaction components: 10-μL c-Src beads, 10 μL of 2.5 mg/mL polyglutamate-tyrosine substrate, 5 μM ATP containing 0.2 μCi labeled ^32 P-ATP, 5 μL DMSO containing inhibitors or as a solvent control, and buffer to make the final volume 125 μL. The reaction is started at room temperature by addition of the ATP and quenched 10 minutes later by the addition of 125 μL of 30% TCA, 0.1 M sodium pyrophosphate for 15 minutes on ice. The plate is then filtered and the wells washed with two 250-μL aliquots of 15% TCA, 0.1 M pyrophosphate. The filters are punched, counted in a liquid scintillation counter, and the data examined for inhibitory activity in comparison to a known inhibitor such as erbstatin. The method is described more fully in J. Med. Chem., 1994;37:598-609.

[6] = molecular target: T4, insulin receptor (INSr) (Homo sapiens, UniProt P06213); assay: Insulin receptor (INSr) kinase assay; assay type: biochemical; details: 10 mM manganese chloride
T4 construct: An assay using the intracellular kinase domains of insulin receptor (INSr)
Procedure: EGFr. Enzyme assays for IC50 determinations are performed in 96-well filter plates (Millipore MADVN6550). The total volume is 0.1 mL containing 20 mM Hepes, pH 7.4, 50 μM sodium vanadate, 40 mM magnesium chloride, 10 μM ATP containing 0.5 μCi of [^32 P]ATP, 20 μg of polyglutamic acid/tyrosine (Sigma Chemical Co., St. Louis, Mo.), 10 ng of EGF receptor tyrosine kinase and appropriate dilutions of inhibitor. All components except the ATP are added to the well, and the plate is incubated with shaking for 10 minutes at 25° C. The reaction is started by adding [^32 P]ATP, and the plate is incubated at 25° C. for 10 minutes. The reaction is terminated by addition of 0.1 mL of 20% trichloroacetic acid (TCA). The plate is kept at 4° C. for at least 15 minutes to allow the substrate to precipitate. The wells are then washed five times with 0.2 mL of 10% TCA, and ^32 P incorporation is determined with a Wallac beta plate counter.
Other Kinases. An assay using the intracellular kinase domains of insulin receptor (INSr) is performed as described for the EGF receptor except that 10 mM manganese chloride is included in the reaction. The PKC assay is performed as previously described by Martiny-Baron, et al., J. Biol. Chem., 1993;268:9194-9197.

[7] = molecular target: cdk2/cyclinA (Homo sapiens, UniProt P24941); assay: Cyclin-Dependent Kinase Assay, cdk2/cyclinA; assay type: biochemical; details: 12 mM ATP, retinoblastoma substrate
Procedure: as §3, §4

[8] = molecular target: cdk1/cyclinB (Homo sapiens, UniProt P06493); assay: Cyclin-Dependent Kinase Assay, cdk1/cyclinB; assay type: biochemical; details: 12 mM ATP, retinoblastoma substrate
Procedure: as §3, §4

[9] = tested on: human tumor cell lines; details: approximately 60 NCI human tumor cell lines; cited from earlier work
[10] = tested on: cdk2; details: cited from earlier work
[11] = tested on: breast and lung cancer cells; details: several types of breast and lung cancer cells; cited from earlier work
[12] = tested on: cdk4; details: cited from earlier work

cdk4/cyclinD, sequence (P11802 whole entry, species assumed): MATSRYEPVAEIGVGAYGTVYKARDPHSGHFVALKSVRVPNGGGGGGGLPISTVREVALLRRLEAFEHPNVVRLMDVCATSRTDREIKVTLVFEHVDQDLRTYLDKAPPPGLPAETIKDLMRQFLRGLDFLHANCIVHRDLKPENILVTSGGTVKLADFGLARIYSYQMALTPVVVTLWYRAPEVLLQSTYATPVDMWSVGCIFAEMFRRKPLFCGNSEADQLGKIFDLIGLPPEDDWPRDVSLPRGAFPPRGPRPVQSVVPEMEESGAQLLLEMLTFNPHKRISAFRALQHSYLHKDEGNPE
cdk4/cyclinD, sequence (P24385 whole entry partner, species assumed): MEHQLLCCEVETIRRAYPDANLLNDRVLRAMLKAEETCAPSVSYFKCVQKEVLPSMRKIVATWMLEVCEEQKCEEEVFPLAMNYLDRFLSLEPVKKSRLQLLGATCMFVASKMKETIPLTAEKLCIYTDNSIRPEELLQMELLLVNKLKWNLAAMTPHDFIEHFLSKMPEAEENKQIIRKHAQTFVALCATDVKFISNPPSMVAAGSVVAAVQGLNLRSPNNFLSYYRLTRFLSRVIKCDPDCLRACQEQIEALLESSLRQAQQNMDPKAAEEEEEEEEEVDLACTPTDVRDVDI
T2 sequence (P11362 478-767 limits assumed): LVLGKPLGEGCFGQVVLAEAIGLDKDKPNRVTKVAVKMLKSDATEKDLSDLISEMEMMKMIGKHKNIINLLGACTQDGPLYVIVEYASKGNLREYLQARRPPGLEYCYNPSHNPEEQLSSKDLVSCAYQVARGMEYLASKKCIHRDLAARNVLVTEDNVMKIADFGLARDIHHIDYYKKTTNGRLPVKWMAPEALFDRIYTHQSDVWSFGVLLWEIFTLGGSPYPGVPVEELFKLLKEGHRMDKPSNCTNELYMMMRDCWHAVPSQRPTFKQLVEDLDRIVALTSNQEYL
T3 sequence (P12931 whole entry, species assumed): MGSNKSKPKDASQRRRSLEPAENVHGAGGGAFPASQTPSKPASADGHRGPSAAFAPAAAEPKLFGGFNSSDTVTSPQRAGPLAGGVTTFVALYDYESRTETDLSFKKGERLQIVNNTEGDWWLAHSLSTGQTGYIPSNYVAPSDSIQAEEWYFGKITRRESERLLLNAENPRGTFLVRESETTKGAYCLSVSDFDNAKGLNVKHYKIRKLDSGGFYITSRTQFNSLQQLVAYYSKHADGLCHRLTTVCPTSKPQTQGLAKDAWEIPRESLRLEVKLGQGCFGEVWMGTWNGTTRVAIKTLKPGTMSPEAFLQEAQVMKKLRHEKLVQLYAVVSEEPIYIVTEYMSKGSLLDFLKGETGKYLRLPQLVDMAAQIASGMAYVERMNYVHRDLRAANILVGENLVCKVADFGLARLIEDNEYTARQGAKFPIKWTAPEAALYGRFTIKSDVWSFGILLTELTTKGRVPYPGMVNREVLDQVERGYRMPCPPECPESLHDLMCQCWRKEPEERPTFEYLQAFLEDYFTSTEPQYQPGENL
T1 sequence (P05622 599-961 limits assumed): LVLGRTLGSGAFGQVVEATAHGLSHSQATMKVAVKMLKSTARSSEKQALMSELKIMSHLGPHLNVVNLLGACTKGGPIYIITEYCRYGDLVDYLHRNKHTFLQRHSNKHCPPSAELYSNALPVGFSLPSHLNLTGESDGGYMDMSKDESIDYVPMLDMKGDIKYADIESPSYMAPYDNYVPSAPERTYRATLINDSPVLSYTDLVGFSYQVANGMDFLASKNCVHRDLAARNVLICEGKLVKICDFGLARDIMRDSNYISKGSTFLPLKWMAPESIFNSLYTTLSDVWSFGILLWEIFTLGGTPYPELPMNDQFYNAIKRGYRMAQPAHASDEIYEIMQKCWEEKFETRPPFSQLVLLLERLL
cdk1/cyclinB, sequence (P06493 whole entry, species assumed): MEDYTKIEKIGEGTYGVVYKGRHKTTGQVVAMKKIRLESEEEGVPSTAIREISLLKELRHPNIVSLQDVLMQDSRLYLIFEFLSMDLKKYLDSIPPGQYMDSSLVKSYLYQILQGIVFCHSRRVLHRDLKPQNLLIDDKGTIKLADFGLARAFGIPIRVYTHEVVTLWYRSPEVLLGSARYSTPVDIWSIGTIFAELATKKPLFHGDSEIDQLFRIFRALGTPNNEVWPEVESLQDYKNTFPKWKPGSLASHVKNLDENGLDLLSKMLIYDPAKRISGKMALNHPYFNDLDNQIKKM
cdk1/cyclinB, sequence (P14635 whole entry partner, species assumed): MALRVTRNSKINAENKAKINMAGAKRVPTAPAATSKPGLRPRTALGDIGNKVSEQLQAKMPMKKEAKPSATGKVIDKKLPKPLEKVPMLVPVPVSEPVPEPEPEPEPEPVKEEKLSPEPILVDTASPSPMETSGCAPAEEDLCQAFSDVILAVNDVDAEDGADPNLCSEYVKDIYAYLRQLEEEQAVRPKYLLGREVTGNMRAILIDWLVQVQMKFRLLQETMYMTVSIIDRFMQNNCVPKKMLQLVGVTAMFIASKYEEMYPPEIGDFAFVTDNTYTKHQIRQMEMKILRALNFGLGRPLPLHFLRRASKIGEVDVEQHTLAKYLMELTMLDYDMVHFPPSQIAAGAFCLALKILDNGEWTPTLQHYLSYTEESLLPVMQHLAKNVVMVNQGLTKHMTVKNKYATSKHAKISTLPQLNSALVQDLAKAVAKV
T4 sequence (P06213 1023-1298 limits assumed, species assumed): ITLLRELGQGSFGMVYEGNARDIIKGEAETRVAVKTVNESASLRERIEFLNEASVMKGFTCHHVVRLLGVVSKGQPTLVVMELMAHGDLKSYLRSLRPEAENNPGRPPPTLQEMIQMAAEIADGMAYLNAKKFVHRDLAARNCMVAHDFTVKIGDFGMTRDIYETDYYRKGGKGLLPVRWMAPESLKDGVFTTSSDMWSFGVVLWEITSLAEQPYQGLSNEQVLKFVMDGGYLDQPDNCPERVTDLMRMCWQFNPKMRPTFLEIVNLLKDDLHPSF

Row | SMILES | pIC50 [1] | pIC50 [2] | pIC50 [3] | pIC50 [4] | pIC50 [5] | pIC50 [6] | pIC50 [7] | pIC50 [8] | inhibition of proliferation of human tumor cell lines [9] | inhibition of cdk2 [10] | inhibition of breast and lung cancer cells [11] | inhibition of cdk4 [12]
1 | CCn1c(=O)ccc2cnc(Nc3ccc(N4CCN(C)CC4)cc3)cc21 [Example Y, 1-ethyl-7-[4-(4-methylpiperazin-1-yl)phenylamino]-1H-[1,6]naphthyridin-2-one] | 5.25 | 5.85 | 6.46 | 5.24 | 4.94 | – | 5.46 | 5.13 | – | – | – | –
2 | CCn1c(=O)ccc2cnc(Nc3ccc(N4CCOCC4)cc3)cc21 [Example Z, 1-ethyl-7-(4-(morpholin-4-yl)phenylamino)-1H -[1,6]naphthyridin-2-one] | < 4.30 | 5.24 | 5.87 | 5.52 | 4.51 | – | 5.85 | 5.40 | – | – | – | –
3 | Cn1cnc2c(NCc3ccccc3)nc(NCCO)nc21 [Olomoucine, 2-(hydroxyethylamine)-6-benzylamine-9-methylpurine] | – | – | – | – | – | – | – | – | shown to inhibit proliferation of approximately 60 different human tumor cell lines | potent inhibitor of cdk2 and cdk5 | – | –
4 | CN1CC[C@H](c2c(O)cc(O)c3c(=O)cc(-c4ccccc4Cl)oc23)[C@H](O)C1 [flavopiridol] | – | – | – | – | – | – | – | – | – | shown to inhibit cdk2 and cdk4 | potent inhibitor of several types of breast and lung cancer cells | shown to inhibit cdk2 and cdk4

Now from value to compound, other results behind:

Row | pIC50 [1] | pIC50 [2] | pIC50 [3] | pIC50 [4] | pIC50 [5] | pIC50 [6] | pIC50 [7] | pIC50 [8] | SMILES | inhibition of proliferation of human tumor cell lines [9] | inhibition of cdk2 [10] | inhibition of breast and lung cancer cells [11] | inhibition of cdk4 [12]
5 | < 4.30 | 4.91 | 5.82 | 5.30 | > 4.30 | – | – | – | CCn1c(=O)ccc2cnc(Nc3ccc(N4CCCCC4)cc3)cc21 [Example AA, 1-ethyl-7-(4-(piperidin-1-yl)phenylamino)-1H -[1,6]naphthyridin-2-one] | – | – | – | –
6 | – | – | – | – | < 4.30 | < 4.30 | – | – | CN(C)c1cc2c(cn1)cc(-c1c(Cl)cccc1Cl)c(=O)n2C [Example C, 3-(2,6-dichlorophenyl)-7-dimethylamino-1-methyl-1H -[1,6]naphthyridin-2-one] | – | – | – | –
7 | < 4.30 | 4.77 | 5.38 | 5.96 | < 4.30 | – | 6.06 | 5.72 | CCn1c(=O)ccc2cnc(Nc3ccccc3)cc21 [Example W, 1-ethyl-7-phenylamino-1H-[1,6]naphthyridin-2-one] | – | – | – | –
8 | 4.30 to 5.30 | 4.98 | 5.59 | 5.89 | < 4.30 | – | 6.08 | 5.82 | CCn1c(=O)ccc2cnc(Nc3ccc(OC)cc3)cc21 [Example X, 1-ethyl-7-(4-methoxyphenylamino)-1H-[1,6]naphthyridin-2-one] | – | – | – | –
